Legend:
[1] = target: Human immunodeficiency virus type 1 reverse transcriptase (Human immunodeficiency virus 1, UniProt Q72547); experiment: Inhibition of wild type HIV-1 reverse transcriptase using biotin-labelled dNTPs as substrate incubated for 2 hrs by ELISA
[2] = Cytotoxicity against human MT4 cells assessed as reduction in cell viability incubated for 5 days by MTT assay; assay type: toxicity, cell-based; conditions: time 5 day
[3] = Selectivity index, ratio of CC50 for human MT4 cells to EC50 for antiviral activity against HIV-1 IIIB harboring K103N/Y181C double mutant infected in human MT4 cells; assay type: toxicity, cell-based; conditions: read-out: Ratio CC50/EC50
[4] = test system: Human immunodeficiency virus 1; experiment: Antiviral activity against HIV-1 IIIB harboring K103N/Y181C double mutant infected in human MT4 cells assessed as protection against virus-induced cytotoxicity incubated for 5 days by MTT assay; assay type: functional, organism-based; conditions: Human immunodeficiency virus 1, IIIB, MT4, 120 h
[5] = Selectivity index, ratio of CC50 for human MT4 cells to EC50 for antiviral activity against HIV-1 IIIB infected in human MT4 cells; assay type: toxicity, cell-based; conditions: MT4 cells (uninfected and infected with HIV-1 IIIB), read-out: Ratio CC50/EC50
[6] = test system: Human immunodeficiency virus 1; experiment: Antiviral activity against HIV-1 IIIB infected in human MT4 cells assessed as protection against virus-induced cytotoxicity incubated for 5 days by MTT assay; assay type: functional, organism-based; conditions: Human immunodeficiency virus 1, IIIB, MT4, 120 h
[7] = test system: Human immunodeficiency virus 1; experiment: Antiviral activity against HIV-1 harboring reverse transcriptase F227L/V106A mutant infected in human MT4 cells assessed as protection against virus-induced cytopathic effect incubated for 5 days by MTT assay; conditions: Human immunodeficiency virus 1, MT4, 120 h
[8] = test system: Human immunodeficiency virus 1; experiment: Antiviral activity against HIV-1 harboring reverse transcriptase Y188L mutant infected in human MT4 cells assessed as protection against virus-induced cytopathic effect incubated for 5 days by MTT assay; conditions: Human immunodeficiency virus 1, MT4, 120 h
[9] = test system: Human immunodeficiency virus 1; experiment: Antiviral activity against HIV-1 harboring reverse transcriptase Y181C mutant infected in human MT4 cells assessed as protection against virus-induced cytopathic effect incubated for 5 days by MTT assay; conditions: Human immunodeficiency virus 1, MT4, 120 h
[10] = test system: Human immunodeficiency virus 1; experiment: Antiviral activity against HIV1 L1001 infected in human MT4 cells assessed as protection against virus-induced cytopathic effect incubated for 5 days by MTT assay; assay type: functional, organism-based; conditions: Human immunodeficiency virus 1, L1001, MT4, 120 h
[11] = test system: Human immunodeficiency virus 1; experiment: Antiviral activity against HIV-1 harboring reverse transcriptase E138K mutant infected in human MT4 cells assessed as protection against virus-induced cytopathic effect incubated for 5 days by MTT assay; conditions: Human immunodeficiency virus 1, MT4, 120 h
[12] = test system: Human immunodeficiency virus 1; experiment: Antiviral activity against HIV-1 harboring reverse transcriptase K103N mutant infected in human MT4 cells assessed as protection against virus-induced cytopathic effect incubated for 5 days by MTT assay; conditions: Human immunodeficiency virus 1, MT4, 120 h
[13] = Cytotoxicity against human MT4 cells; assay type: toxicity, cell-based
[14] = Selectivity index, ratio of CC50 for human MT4 cells to EC50 for antiviral activity against HIV-1 IIIB; assay type: toxicity; conditions: read-out: Ratio CC50/EC50
[15] = test system: Human immunodeficiency virus 1; experiment: Antiviral activity against HIV-1 IIIB; assay type: functional, organism-based; conditions: Human immunodeficiency virus 1, IIIB
[16] = Selectivity index, ratio of CC50 for human MT4 cells to EC50 for antiviral activity against HIV-1 IIIB harboring K103N/Y181C double mutant; assay type: toxicity; conditions: read-out: Ratio CC50/EC50
[17] = test system: Human immunodeficiency virus 1; experiment: Antiviral activity against HIV-1 IIIB harboring K103N/Y181C double mutant; assay type: functional, organism-based; conditions: Human immunodeficiency virus 1, IIIB
[18] = Aqueous solubility of the compound at pH 7.0 by HPLC analysis; assay type: physicochemical; conditions: buffer
[19] = Aqueous solubility of the compound at pH 7.4 by HPLC analysis; assay type: physicochemical; conditions: buffer

Structure (SMILES)	IC50 [1] [nM]	CC50 at 120 h [2] [nM]	selectivity ratio [3]	EC50 [4] [nM]	selectivity ratio [5]	EC50 [6] [nM]	also measured
Cc1cc(/C=C/C#N)cc(C)c1Oc1nc(Nc2ccc(N3CCC(NS(N)(=O)=O)CC3)cc2)nc2c1COC2	1320						
Cc1cc(/C=C/C#N)cc(C)c1Oc1nc(NC2CCN(c3ccc(C(N)=O)cc3)CC2)nc2c1COC2	60	> 233000	> 234	992	> 97900	2.38	
Cc1cc(/C=C/C#N)cc(C)c1Oc1nc(Nc2ccc(N3CCC(NS(C)(=O)=O)CC3)cc2)nc2c1COC2	460						
Cc1cc(/C=C/C#N)cc(C)c1Oc1nc(Nc2ccc(N3CCCC(NS(N)(=O)=O)C3)cc2)nc2c1COC2 (stereo unspecified)	780						
Cc1cc(/C=C/C#N)cc(C)c1Oc1nc(Nc2ccc(CN3CCN(S(N)(=O)=O)CC3)cc2)nc2c1COC2	280						
Cc1cc(/C=C/C#N)cc(C)c1Oc1nc(NC2CCN(c3ccc(NS(N)(=O)=O)cc3)CC2)nc2c1COC2	120	23000	260	88.9	1370	16.8	EC50 [7]: 19.9 nM; EC50 [8]: 141 nM; EC50 [9]: 46.5 nM; EC50 [10]: 1250 nM; EC50 [11]: 34.6 nM; EC50 [12]: 13.1 nM
Cc1cc(/C=C/C#N)cc(C)c1Oc1nc(NC2CCN(Cc3ccc(S(N)(=O)=O)cc3)CC2)nc2c1COC2	140	14700	595	24.7	2360	6.24	EC50 [7]: 11.9 nM; EC50 [8]: 38 nM; EC50 [9]: 7.71 nM; EC50 [10]: 5.12 nM; EC50 [11]: 10.3 nM; EC50 [12]: 5.97 nM
Cc1cc(/C=C/C#N)cc(C)c1Oc1nc(Nc2ccc(C3CCCN(S(C)(=O)=O)CC3)cc2)nc2c1COC2 (stereo unspecified)	230						
Cc1cc(/C=C/C#N)cc(C)c1Oc1nc(NC2CCN(c3ccc(S(N)(=O)=O)cc3)CC2)nc2c1COC2	60	27300	23	1300	6530	4.18	
Cc1cc(/C=C/C#N)cc(C)c1Oc1nc(Nc2ccc(N3CCN(S(N)(=O)=O)CC3)cc2)nc2c1COC2	710						
Cc1cc(/C=C/C#N)cc(C)c1Oc1nc(Nc2ccc(CN3CCN(S(C)(=O)=O)CC3)cc2)nc2c1COC2	150						
Cc1cc(/C=C/C#N)cc(C)c1Oc1nc(Nc2ccc(N3CCC(NS(N)(=O)=O)C3)cc2)nc2c1COC2 (stereo unspecified)	1060						
Cc1cc(/C=C/C#N)cc(C)c1Oc1nc(NC2CCN(Cc3ccc(S(C)(=O)=O)cc3)CC2)nc2c1COC2	150	9790	283	34.6	2260	4.33	EC50 [7]: 16.3 nM; EC50 [8]: 41.4 nM; EC50 [9]: 9.96 nM; EC50 [10]: 5.18 nM; EC50 [11]: 15.4 nM; EC50 [12]: 6.47 nM
Cc1cc(/C=C/C#N)cc(C)c1Oc1nc(Nc2ccc(N3CCC(NS(C)(=O)=O)C3)cc2)nc2c1COC2 (stereo unspecified)	180						
Cc1cc(/C=C/C#N)cc(C)c1Oc1nc(Nc2ccc(C#N)cc2)nc2c1COC2	60						
Cc1cc(/C=C/C#N)cc(C)c1Oc1nc(NC2CCN(c3ccc(S(C)(=O)=O)cc3)CC2)nc2c1COC2	70	104000	87	1200	16500	6.3	
Cc1cc(/C=C/C#N)cc(C)c1Oc1nc(NC2CCN(Cc3ccc([N+](=O)[O-])cc3)CC2)nc2c1COC2	180	6670	103	65	801	8.32	EC50 [7]: 60.5 nM; EC50 [8]: 94 nM; EC50 [9]: 26.8 nM; EC50 [10]: 10.4 nM; EC50 [11]: 21.7 nM; EC50 [12]: 7.78 nM
Cc1cc(/C=C/C#N)cc(C)c1Oc1nc(Nc2ccc(N3CCN(S(C)(=O)=O)CC3)cc2)nc2c1COC2	180						
Cc1cc(/C=C/C#N)cc(C)c1Oc1nc(Nc2ccc(N3CCCC(NS(C)(=O)=O)C3)cc2)nc2c1COC2 (stereo unspecified)	1240						
Cc1cc(/C=C/C#N)cc(C)c1Oc1nc(NC2CCN(Cc3ccc(N)cc3)CC2)nc2c1COC2	190	27000	505	53.5	8020	3.37	EC50 [7]: 37.6 nM; EC50 [8]: 51.4 nM; EC50 [9]: 9.36 nM; EC50 [10]: 10.2 nM; EC50 [11]: 9.16 nM; EC50 [12]: 5.58 nM
Cc1cc(/C=C/C#N)cc(C)c1Oc1nc(NC2CCN(Cc3ccc(C(F)(F)F)cc3)CC2)nc2c1COC2	360	5010	26	190	256	19.5	EC50 [7]: 199 nM; EC50 [8]: 282 nM; EC50 [9]: 65.6 nM; EC50 [10]: 34.5 nM; EC50 [11]: 129 nM; EC50 [12]: 30.1 nM
Cc1cc(/C=C/C#N)cc(C)c1Oc1nc(Nc2ccc(C3CCCN(S(N)(=O)=O)CC3)cc2)nc2c1COC2 (stereo unspecified)	90						
Cc1cc(/C=C/C#N)cc(C)c1Oc1nc(NC2CCN(c3ccc(N)cc3)CC2)nc2c1COC2	180	9140	37	249	258	35.4	
Cn1c(Cn2ccc(C(F)(F)F)c(Oc3cc(Cl)cc(C#N)c3)c2=O)n[nH]c1=O [DORAVIRINE]							CC50 [13]: > 293000 nM; selectivity ratio [14]: > 21800; EC50 [15]: 13.3 nM; selectivity ratio [16]: > 20100; EC50 [17]: 14.5 nM
Cc1cc(C#N)cc(C)c1Oc1nc(Nc2ccc(C#N)cc2)nc(N)c1Br [ETRAVIRINE]		> 4590	> 64	72.3	> 1170		EC50 [7]: 21.4 nM; solubility [18]: < 1 µg/mL; EC50 [8]: 48.7 nM; solubility [19]: < 1 µg/mL; EC50 [11]: 15.4 nM; EC50 [12]: 4.65 nM
Cc1cc(/C=C/C#N)cc(C)c1Nc1ccnc(Nc2ccc(C#N)cc2)n1 [RILPIVIRINE]							solubility [18]: < 1 µg/mL; solubility [19]: < 1 µg/mL
